From patent US20220332763A1, “FUSED POLYPEPTIDE AND USE THEREOF” (NANJING ANJI BIOLOGICAL TECHNOLOGY CO., LTD., priority 2019, published 2022) come the findings set out here.

Where no end group is shown, it is not given here.

For assay [1], the system named is LX-2 hepatic stellate cells. Description: In vitro hepatic fibrosis model, MTT assay. The class given is cell-based. To be noted: 1 μmol/L; for Inhibition of proliferation (in words): 24 hours and 48 hours, Example 2; for Optical density value, 12 h / Optical density value, 24 h / Optical density value, 48 h: LX-2 cells, MTT, OD at 570 nm; for Optical density value, 12 h: blank group 0.456 ± 0.012; for Optical density value, 24 h: blank group 0.548 ± 0.01; for Optical density value, 48 h: blank group 0.812 ± 0.016. As to the method: (§1) The inhibitory effect of a polypeptide on LX-2 hepatic stellate cells was detected by MTT assay. Cells were cultured in a 1640 medium containing 10% of FBS, the […] was made into 4×10^5/mL cell suspension, and 100 μL per well was inoculated into a 96-well plate. After the cells adhered to the wall, the medium was replaced with a serum-free 1640 medium, and the serum-free medium was discarded after 24 hours. The cells were cultured with different polypeptides of 1 μmol/L, and 5 multiple wells were set for each concentration. After 12, 24 and 48 hours separately, 10 μL of MTT was added to each well. After 4 hours, MTT was sucked out, and 150 μL of DMSO was added to each well. After reaction for 5 min, an OD value was measured at 570 nm by a microplate reader.

Assay [2] has as its system SD rats with bleomycin-induced pulmonary fibrosis. The experiment in a line: Bleomycin-induced pulmonary fibrosis animal model. To be noted: for Survival rate (%): dosage 10 mg/kg in Table 2, administration 14 days, model group 50. Type of assay: in vivo. As for the experimental part: SD rats were anesthetized by intraperitoneal injection of 1 mL/100 g 4% chloral hydrate. After anesthesia, the rats were fixed and their necks were disinfected by using cotton with 75% alcohol. The skin of the rat neck was longitudinally cut with scissors, and the fascia and muscle were longitudinally bluntly torn with tweezers to expose the trachea. A syringe was inserted into the trachea to inject 5 mg/kg bleomycin, while a blank group was injected with an equal amount of normal saline. Then a rat plate was quickly erected and rotated, the rats' breathing was observed, the neck wound was sterilized after rotation and was sewn, and an amoxicillin anti-inflammatory drug was sprinkled on the suture. After the operation, the rats were put back into a dry and clean cage for resting, waiting was performed for awakening. The rats were awakened after about 1-2 hours, and then fed normally. On the 7th day after modeling, modeling group animals randomly fell into a model group, a Nintedanib positive drug group, polypeptide I, II, III, IV, V, VI dosage groups, and a normal control group, and the groups were administered separately for an administration cycle of 14 days. Living situations of rats were observed every day and their weights were weighed. After administration for 14 days, the SD rats were dissected, the lung tissue was taken, and the right lung tissue was placed in a tissue fixative only for fixation, and HE staining and Masson staining and slice analysis were performed.

For the next assay, the system named is HYP. The experiment in a line: Bleomycin skin fibrosis model, HYP content in skin tissue. Type of assay: in vivo, C57/BL black mice. To be noted: bleomycin skin fibrosis mice; 10 mg/kg subcutaneous twice a day, 28 days; FIG. 4. As to the method: Bleomycin (10 μg/mL) was injected subcutaneously every day for 28 days to form skin fibrosis. During the modeling period, the administration groups were given polypeptide drugs twice a day for treatment. After modeling, the mice were killed on the next day, and the skin tissue of the mouse back was taken to detect the content of HYP in the skin tissue.

The test system of assay [3] is cardiac fibroblasts of rats. The experiment in a line: Myocardial fibrosis model, MTT assay. The class given is cell-based. As to conditions: 1 μmol/L; for Inhibition of proliferation of cardiac fibroblasts of rats (in words): 24 hours and 48 hours; for Optical density value, 12 h / Optical density value, 24 h / Optical density value, 48 h: cardiac fibroblasts of rats, MTT, OD at 570 nm; for Optical density value, 12 h: blank group 0.353 ± 0.001; for Optical density value, 24 h: blank group 0.464 ± 0.018; for Optical density value, 48 h: blank group 0.896 ± 0.001. As for the experimental part:
as §1, with “cardiac fibroblasts of rats” for “LX-2 hepatic stellate cells”, “DMEM” for “1640”, “1×10^5/mL” for “4×10^5/mL”

The test system of another assay is TGF-β1. The experiment in a line: Renal fibrosis animal model (ureter ligation), TGF-β1 in serum. The class given is in vivo. As to conditions: SD rats with renal fibrosis; 7.5 mg/kg subcutaneous twice a day, 14 days; FIG. 3. As to the method:
A renal fibrosis animal model was established. SD rats were anesthetized with 4% chloral hydrate, injected with 1 mL/100 g intraperitoneally, fixed to an operation board, and sterilized in an operation area for later use. […] Muscular layers and abdominal walls were sewed layer by layer, the suture was disinfected with alcohol. After SD rats woke up, the rats were put into a cage for feeding. In the blank group, ureter was not ligated, and other steps were the same.
Then, the animals fell into a blank group, a model group, and polypeptide administration groups, with 10 animals in each group, and the administration was started on the second day after the operation, twice a day for 14 days. After administration for 14 days, blood was taken and supernatant was taken to detect the content of TGF-β1 in serum.

Turning to “TSLDASIIWAMMQNGGGGLSKLGGGGSDKP [Polypeptide IV, Thr-Ser-Leu-Asp-Ala-Ser-Ile-Ile-Trp-Ala-Met-Met-Gln-Asn-linker-Leu-Ser-Lys-Leu-linker-Ser-Asp-Lys-Pro]”, in assay [1], the “Inhibition of proliferation (in words)” value is listed as “could inhibit the proliferation”; the “Optical density value, 12 h” value was found to be 0.478 ± 0.018; the “Optical density value, 24 h” value came to 0.472 ± 0.03; the “Optical density value, 48 h” value turned out to be 0.580 ± 0.012. Moreover, the “Survival rate (%)” value in assay [2] was 80%. In addition, in the assay with HYP, the “Expression of HYP content in tissue versus model group” value is recorded as “highly significantly different from the model group (***P<0.001)”. For the same compound, in assay [3], the “Inhibition of proliferation of cardiac fibroblasts of rats (in words)” value (from here on “Inhibition of proliferation … of rats (in words)”) was “could inhibit the proliferation”; the “Optical density value, 12 h” value was found to be 0.362 ± 0.015; the “Optical density value, 24 h” value is listed as 0.392 ± 0.008; the “Optical density value, 48 h” value was 0.583 ± 0.012. The “Content of TGF-β1 in serum versus model group” value with TGF-β1 is “highly significantly different from the model group (***P<0.001)”.
For “LSKLGGGGTSLDASIIWAMMQNGGGGSDKP [Polypeptide VI, Leu-Ser-Lys-Leu-linker-Thr-Ser-Leu-Asp-Ala-Ser-Ile-Ile-Trp-Ala-Met-Met-Gln-Asn-linker-Ser-Asp-Lys-Pro]”, in assay [1], the “Inhibition of proliferation (in words)” value is listed as “could inhibit the proliferation”; the “Optical density value, 12 h” value came out at 0.453 ± 0.021; the “Optical density value, 24 h” value came to 0.502 ± 0.013; the “Optical density value, 48 h” value came to 0.652 ± 0.018. Also, in assay [2], the “Survival rate (%)” value turned out to be 70%. The “Expression of HYP content in tissue versus model group” value in the assay with HYP was “highly significantly different from the model group (***P<0.001)”. In assay [3], the “Inhibition of proliferation … of rats (in words)” value is listed as “could inhibit the proliferation”; the “Optical density value, 12 h” value is 0.340 ± 0.012; the “Optical density value, 24 h” value stood at 0.412 ± 0.005; the “Optical density value, 48 h” value was 0.622 ± 0.007. The “Content of TGF-β1 in serum versus model group” value in the assay with TGF-β1 is recorded as “highly significantly different from the model group (**P<0.01)”.
As to “LSKLGGGGSDKPGGGGTSLDASIIWAMMQN [Polypeptide V, Leu-Ser-Lys-Leu-linker-Ser-Asp-Lys-Pro-linker-Thr-Ser-Leu-Asp-Ala-Ser-Ile-Ile-Trp-Ala-Met-Met-Gln-Asn]”, in assay [1], the “Inhibition of proliferation (in words)” value is reported as “could inhibit the proliferation”; the “Optical density value, 12 h” value turned out to be 0.462 ± 0.004; the “Optical density value, 24 h” value stood at 0.477 ± 0.015; the “Optical density value, 48 h” value turned out to be 0.618 ± 0.015. Also, in assay [2], the “Survival rate (%)” value was determined as 70%. Besides, the “Expression of HYP content in tissue versus model group” value in the assay on HYP is “highly significantly different from the model group (*P<0.05)”. Further, in assay [3], the “Inhibition of proliferation … of rats (in words)” value was “could inhibit the proliferation”; the “Optical density value, 12 h” value stood at 0.357 ± 0.024; the “Optical density value, 24 h” value is given as 0.397 ± 0.015; the “Optical density value, 48 h” value was determined as 0.588 ± 0.019. Moreover, the “Content of TGF-β1 in serum versus model group” value with TGF-β1 was “highly significantly different from the model group (**P<0.01)”.
For the compound `COC(=O)c1ccc2c(c1)NC(=O)/C2=C(\Nc1ccc(N(C)C(=O)CN2CCN(C)CC2)cc1)c1ccccc1` [Positive drug group, Nintedanib, reference compound], the “Survival rate (%)” value in assay [2] worked out at 90%.
On to “TSLDASIIWAMMQNGGGGSDKPGGGGLSKL [Polypeptide III, Thr-Ser-Leu-Asp-Ala-Ser-Ile-Ile-Trp-Ala-Met-Met-Gln-Asn-linker-Ser-Asp-Lys-Pro-linker-Leu-Ser-Lys-Leu]”, for which, in assay [1], the “Inhibition of proliferation (in words)” value is given as “could inhibit the proliferation”; the “Optical density value, 12 h” value was found to be 0.455 ± 0.002; the “Optical density value, 24 h” value was 0.435 ± 0.013; the “Optical density value, 48 h” value is 0.642 ± 0.018. Also, in assay [2], the “Survival rate (%)” value is 80%. The “Expression of HYP content in tissue versus model group” value in the assay on HYP is given as “highly significantly different from the model group (*P<0.05)”. For the same compound, in assay [3], the “Inhibition of proliferation … of rats (in words)” value is on record as “could inhibit the proliferation”; the “Optical density value, 12 h” value is 0.349 ± 0.012; the “Optical density value, 24 h” value is 0.413 ± 0.003; the “Optical density value, 48 h” value was 0.612 ± 0.018. In addition, the “Content of TGF-β1 in serum versus model group” value in the assay with TGF-β1 is “highly significantly different from the model group (**P<0.01)”.
For the compound “Ac-SDKPGGGGLSKLGGGGTSLDASIIWAMMQN (N-terminus assumed) [Polypeptide I, Ser-Asp-Lys-Pro-linker-Leu-Ser-Lys-Leu-linker-Thr-Ser-Leu-Asp-Ala-Ser-Ile-Ile-Trp-Ala-Met-Met-Gln-Asn]”, in assay [1], the “Inhibition of proliferation (in words)” value is given as “could inhibit the proliferation”; the “Optical density value, 12 h” value came to 0.452 ± 0.008; the “Optical density value, 24 h” value worked out at 0.542 ± 0.03; the “Optical density value, 48 h” value worked out at 0.680 ± 0.014. Also, the “Survival rate (%)” value in assay [2] is on record as 90%. In assay [2] (in words), the “Survival rate compared with model group / positive drug group” value is listed as “equivalent to that of the positive drug group”. Further, the “Expression of HYP content in tissue versus model group” value in the assay with HYP is “highly significantly different from the model group (*P<0.05)”. Besides, in assay [3], the “Inhibition of proliferation … of rats (in words)” value is “could inhibit the proliferation”; the “Optical density value, 12 h” value is 0.362 ± 0.006; the “Optical density value, 24 h” value is 0.402 ± 0.002; the “Optical density value, 48 h” value is reported as 0.678 ± 0.002. Also, the “Content of TGF-β1 in serum versus model group” value with TGF-β1 is reported as “highly significantly different from the model group (***P<0.001)”.
Turning to “Ac-SDKPGGGGTSLDASIIWAMMQNGGGGLSKL (N-terminus assumed) [Polypeptide II, Ser-Asp-Lys-Pro-linker-Thr-Ser-Leu-Asp-Ala-Ser-Ile-Ile-Trp-Ala-Met-Met-Gln-Asn-linker-Leu-Ser-Lys-Leu]”, in assay [1], the “Inhibition of proliferation (in words)” value is “could inhibit the proliferation”; the “Optical density value, 12 h” value was 0.463 ± 0.012; the “Optical density value, 24 h” value is given as 0.394 ± 0.005; the “Optical density value, 48 h” value came out at 0.578 ± 0.005. Moreover, the “Survival rate (%)” value in assay [2] was 80%. Besides, the “Expression of HYP content in tissue versus model group” value in the assay on HYP is “highly significantly different from the model group (***P<0.001)”. In assay [3], the “Inhibition of proliferation … of rats (in words)” value is recorded as “could inhibit the proliferation”; the “Optical density value, 12 h” value is reported as 0.352 ± 0.004; the “Optical density value, 24 h” value is given as 0.367 ± 0.016; the “Optical density value, 48 h” value came to 0.568 ± 0.013. Further, the “Content of TGF-β1 in serum versus model group” value with TGF-β1 is recorded as “highly significantly different from the model group (***P<0.001)”.
